Results as given in patent publication US12016959B2, “Sustained drug release sheet for treating nerve injury” (OSAKA UNIVERSITY, priority 2016, dated 2024).

Tests used:
Erk1/2 and Akt = conditions: through the methylation cycle; Non-Patent Document 2; cited from earlier work
[1] = test system: rat sciatic nerve injury model; conditions: continuous high-dose administration; Non-Patent Document 2; cited from earlier work
[2] = test system: rat sciatic nerve crush injury model; test: Histological evaluation (axons, MBP-positive axons), rat sciatic nerve crush injury model; format: in vivo; conditions: 6 weeks after surgery, mean±SEM
Description: (§1) All of animal experiments were went ahead with the approval of the Ethics Committee of the animal laboratory of Osaka University. Six-week-old male Wistar rats (body weights: about 200 g) were used. All of the surgeries were carried out while applying deep sedation with a mixed anesthetic drug composed of midazolam (2 mg/kg), butorphanol (2.5 mg/kg) and medetomidine (0.15 mg/kg). A left sciatic nerve was exposed under clean operations, and a crush injury was applied to a position 5 mm distal to a sciatic notch with a pair of forceps. The time of crushing was 10 seconds, the frequency of crushing operations was three times, and the intervals between the crushing operations was 10 seconds. The fascia and the skin were sutured together with 4-0 nylon. […] The systemic administration of methylcobalamin was performed by placing an osmotic minipump (Model 2ML2; Alzet, Cupertino, CA, USA) under the skin of the back. All of the surgeries were carried out by the same practitioner.
Each of the rats 6 weeks after the surgery was sedated with an anesthetic drug, and a left sciatic nerve was collected therefrom and then fixed with 4% PFA for 5 days and with 20% sucrose for 24 hours and then frozen and embedded. […] The total number of axons and the ratio of myelinated axons (total number of MBP-positive axons)/(total number of axons) were evaluated.

[3] = test system: rat sciatic nerve crush injury model; test: Motor function, sciatic function index (SFI), rat sciatic nerve crush injury model; format: in vivo; conditions: 6 weeks after surgery; 0 = normal, −100 = impaired; untreated group −20.6±4.2; mean±SEM
Description: as §1, with “All of the surgeries were carried out by the same practitioner.” left out
For the evaluation of a motor function, a sciatic function index (SFI) was measured 6 weeks after the surgery. For the measurement of an SFI, an ink was applied to the back paw of a rat, then the rat was allowed to walk on office paper placed on a 40 cm-square horizontal table, and then foot prints of the rat were recorded. The four items mentioned below were measured to calculate an SFI. […] An SFI value was calculated in accordance with the following mathematical formula. […]

[4] = Concentration of vitamin B12 (drug) in blood, rat sciatic nerve crush injury model; format: in vivo; conditions: 6 weeks after surgery; mean±SEM
Description: The examination on the sheet that contained the present extract as a drug was carried out in the same manner.
Blood was collected in an amount of 1 mL from the left ventricle of a rat under anesthesia 6 weeks after the surgery. The collected blood was centrifuged at 800×g for 20 minutes to collect a supernatant. The measurement of a concentration of vitamin B12 in the blood was entrusted to BML, INC. (Tokyo).

neurons = conditions: Non-Patent Document 2; cited from earlier work
[5] = test system: rat sciatic nerve crush injury model; test: Sensory function, von Frey filament test, rat sciatic nerve crush injury model; format: in vivo; conditions: 6 weeks after surgery; untreated group 117.8±11.7 g; mean±SEM
Description: as §1, with “All of the surgeries were carried out by the same practitioner.” left out
For the evaluation of a sensory function, a mechanical hind paw withdrawal threshold was measured 6 weeks after the surgery using a von Frey filament (0.008 to 26 g; Touch Test, North Coast Medical Inc, Gilroy, CA, USA). Each of the rats was made walk on a metallic mesh, then a pressure was applied onto the center of the sole until the filament began to bend, and then a value at which the rat evoked an escape behavior was recorded.

[6] = test system: rat sciatic nerve crush injury model; test: Electrophysiological evaluation (CMAP, TL, NCV), rat sciatic nerve crush injury model; format: in vivo; conditions: 6 weeks after surgery, mean±SEM
Description: as §1
Each of the rats 3 or 6 weeks after the surgery was sedated with an anesthetic drug and was then placed on an operating table in a prone position. A left sciatic nerve and a left tibialis anterior muscle were exposed. Each of a compound muscle action potential (CMAP) and a terminal latency (TL) was measured while stimulating a proximal site of a sciatic nerve with a bipolar electrode. A nerve conduction velocity (NCV) was calculated from measurement values respectively obtained at a proximal site and a distal site to the sciatic nerve crush injury while stimulating the positions with a bipolar electrode. In the measurement and the evaluation, AD Instruments Power Lab 2/26, Stimulus isolator, and Bio Amp and Chart & Scope software (all manufactured by AD Instruments, Bel la Vista, NSW, Australis) were used.

C/C1=C2/[N-][C@H]([C@H](CC(N)=O)[C@@]2(C)CCC(=O)NC[C@@H](C)OP(=O)([O-])O[C@H]2[C@@H](O)[C@@H](n3cnc4cc(C)c(C)cc43)O[C@@H]2CO)[C@]2(C)N=C(/C(C)=C3N=C(/C=C4N=C1[C@@H](CCC(N)=O)C\4(C)C)[C@@H](CCC(N)=O)[C@]\3(C)CC(N)=O)[C@@H](CCC(N)=O)[C@]2(C)CC(N)=O.[CH3-].[Co+3] [MeCbl pump, methylcobalamin]
activities of Erk1/2 and Akt (Erk1/2 and Akt): increase the activities of Erk1/2 and Akt | nerve regeneration and function recovery [1]: improves nerve regeneration and function recovery | ratio of myelinated axons (number of MBP-positive axons)/(total number of axons) ([2]; untreated group 85.0±0.9%): 91.5±0.6% | number of regenerated axons per sq. mm ([2]; untreated group 2843±68/mm^2): 2735±77 /mm^2 | sciatic function index (SFI) [3]: −10.5±2.0 | concentration of vitamin B12 in the blood [4]: 18.35 ± 2.27 ng/mL | concentration that can promote the elongation of neurites and the survival of neurons (neurons): ≥ 100 nM | von Frey filament test, mechanical hind paw withdrawal threshold [5]: 77.8 ± 7.0 g | terminal latency (TL) ([6]; untreated group 3.45±0.08 ms): 3.24 ± 0.07 ms | compound muscle action potential (CMAP) ([6]; untreated group 19.5±2.3 mV): 19.5±1.5 mV | nerve conduction velocity (NCV) ([6]; untreated group 28.2±2.5 m/s): 43.2±2.5 m/s
